Reference: patent US20100004266A1, “Salt or Solvate of 5-Methyl-2(Piperazin-1-Yl)Benzenesulfonic Acid” (Mitsubishi Tanabe Pharma Corporation, priority 2006, published 2010)

What was measured:
[1] = Thermal analysis (DSC) of the crystals; type: physicochemical; settings: 25-300° C., 20° C./min, dry nitrogen gas 50 mL/min
Experimental: For thermal analysis, the measurement was performed in a dry nitrogen gas stream (50 mL/min) from 25° C. to 300° C. at a temperature rise rate of 20° C./min.
For identification of the solvate form of the present invention, a powder X-ray diffraction apparatus (manufactured by Bruker) GADDS detector system and a thermal analysis equipment (manufactured by Mettler-Toledo) DSC822e system were used. The powder X-ray diffraction pattern was measured at room temperature using CuKα as a monochromator within the 2θ angle range of 1.5-41.5°. The thermal analysis was performed in a dry nitrogen gas stream (50 mL/min) from 25° C. to 300° C. at a temperature rise rate of 20° C./min.
Using the white solids obtained in Examples 1 and 2 as sample 1 (hydrochloride salt) and sample 2 (calcium salt), respectively, the thermal analysis was performed under the following conditions.
apparatus: DSC822e manufactured by Metter-Toledo temperature rise rate: 20° C./min atmosphere: dry nitrogen gas 50 mL/min measurement temperature: 25-300° C.
Using the solid obtained in Example 3 as sample 3 (2,2,2-[…] hydrate crystal), the thermal analysis was performed under the following conditions.

[2] = tested on: cardiomyocytes; settings: cited from earlier work

Molecule: Cc1ccc(N2CCNCC2)c(S(=O)(=O)O)c1.OCC(F)(F)F [Sample 3, 5-methyl-2-(piperazin-1-yl)benzenesulfonic acid 2,2,2-tetrafluoroethanolate]
- crystal stability by thermal analysis [1]: stable
- no noticeable endothermic and exothermic peaks up to (temperature) [1]: around 80 °C

Molecule: Cc1ccc(N2CCNCC2)c(S(=O)(=O)O)c1 [compound A, 5-methyl-2-(piperazin-1-yl)benzenesulfonic acid]
- excessive influx of calcium ions into cardiomyocytes [2]: remarkably suppresses

Molecule: Cc1ccc(N2CCNCC2)c(S(=O)(=O)O)c1.Cl [sample 1, 5-methyl-2-(piperazin-1-yl)benzenesulfonic acid hydrochloride]
- crystal stability by thermal analysis [1]: stable
- no noticeable endothermic and exothermic peaks up to (temperature) [1]: 200 °C

Molecule: Calcium 5-methyl-2-(piperazin-1-yl)benzenesulfonate [sample 2]
- crystal stability by thermal analysis [1]: stable
- no noticeable endothermic and exothermic peaks up to (temperature) [1]: 200 °C
